US11624022B2, “Preparation method for the plant-based nano corrosion inhibition bactericide for oilfield and application thereof” (Southwest Petroleum University, priority 2021, dated 2023)

Assays:
[1] = test system: sulfate reducing bacteria (SRB); test: Sterilization performance test (serial dilution counting of SRB); type: cell-based; conditions: 60 mg/L, counted 24 hours later; for Number of SRB: no bactericide 2500000
Experimental: Before the test, all devices and glass containers were sterilized for 20 min at 121° C. The SRB strain was isolated from the formation water of an injection well in a shale gas field in China. SRB liquid medium was prepared according to NACE TMO194-94 standard.
The composition of the medium is as follows: Ig yeast powder, 0.1 g ascorbic acid, 0.2 g MgSO4·7H2O, 0.01 g K2HPO4, 10 g NaCl, 0.2 g (NH4)2Fe(SO4)2·6H2O, 4 mL sodium lactate, and 1000 mL deionized water. A portable pressure steam disinfection pot was used to sterilize the bacteria in the prepared medium. In the sterilization process, the temperature was kept at 120° C. for 15 min. It was then deoxidized with N2 for 2 h. 10% SRB was inoculated into the medium and placed in an incubator at 37° C. After 5 days, the number of SRB reached the peak value and remained stable.
Different bactericides were added into the cultured bacteria solution of 200 mL and counted 24 hours later.
Serial dilution method (triple repetition) was taken for the counting of SRB. Totally 10 dilution levels were provided. At each dilution level, there were three identical vials filled with 9 mL SRB medium. The measured sample of 1 mL was injected into a vial at the Level 0 and then shaken up. The 1 mL solution from the vial at the Level 0 was injected into a vial at the Level 1. The syringe for sampling the liquid each time was disposable to avoid affecting the final results. Similarly, the sample was diluted until the dilution reached Level 9. All vials were incubated at 35° C. for 14 days at a constant temperature.
The growth index should be determined according to the following principles: three dilution levels were selected from the dilution level at which negative vials appeared, and the number of positive vials was counted for each dilution level to obtain the index (When all the vials in a certain grade are negative, the previous grade is counted). The growth index (summarized according to 5.6.5.3 in SY/T 5329-1994) is obtained by multiplying the dilution factor 10^n of water sample (n is the number of dilutions before the index position). Check the corresponding bacteria count table and substitute the bacterial count detected by the index to get the content of this kind of bacteria in the water sample (Nr./mL).
The test results are shown in Table 1, in which the vials 1 to 10 are filled with 9 mL SRB medium (10^7). The dilution levels are numbered from Lev. 0 to Lev. 9. Take the measured sample of 1 mL into the Vial 1, indicating Level 0; take a new syringe and take 1 mL from Vial 1 to Vial 2, indicating Level 1; take a new syringe and take 1 mL from Vial 2 to Vial 3, indicating […]; the rest can be done in the same manner until 1 mL is taken from Vial 9 to Vial 10, indicating Level 9. “+” represents positive vial, and “−” represents negative vial.

[2] = Corrosion inhibition performance test (static uniform corrosion, SY/T 5273-2014); conditions: 60 mg/L; N80 steel, corrosive solution pH 6.5, 37° C., 14 days
Experimental: The corrosive solution of 1 L was prepared, the pH was adjusted to 6.5, and the temperature was 37° C. at a normal pressure. The N80 steel specimens were processed with specifications of 30*15*3 and placed in corrosive solution. Three specimens were placed in each vial and different corrosion inhibitors were added respectively. The experiment lasted for 14 days.
After the test, the specimens were cleaned with stripping solution (100 ml hydrochloric acid+10 g hexamethylenetetramine+900 mL deionized water), then dehydrated by ethanol and blow-dried with N2. The determination method for static uniform corrosion inhibition rate was evaluated with referring to the Performance Index and Evaluation Method of Corrosion Inhibitor for Oilfield Produced Water Treatment (SY/T 5273-2014), the oil and gas industry standard of the People's Republic of China. The formulas of uniform corrosion rate and corrosion inhibition efficiency are as follows:
The corrosion inhibition test results are shown in Table 3, in which the corrosion inhibitors 1, 2 and 3 commonly used in oilfields are respectively the lauric acid imidazoline, abietic acid imidazoline and tetradecyl trimethyl ammonium bromide.

| Molecule | Growth index [1] | Sterilization rate [1] [%] | Number of SRB [1] [Nr./mL] | Corrosion inhibition efficiency [2] [%] |
| --- | --- | --- | --- | --- |
| O=CCCCC=O [Glutaraldehyde] | 200 | 64 | 900000 |  |
| CCCCCCCCCCCCCC[N+](C)(C)C.[Br-] [Tetradecyl trimethyl ammonium bromide, tetradecyl trimethyl ammonium bromide] |  |  |  | 90.9 |
| CCCCCCCCCCCC[N+](C)(C)Cc1ccccc1.[Cl-] [Traditional bactericide 1227] | 210 | 40 | 1500000 |  |
| abietic acid imidazoline |  |  |  | 93.9 |
| lauric acid imidazoline |  |  |  | 93.3 |
